Test results from article PMC5607274, “An iterative compound screening contest method for identifying target protein inhibitors using the tyrosine-protein kinase Yes” (Scientific Reports, 2017).

These compounds were tested against T1, human recombinant Yes [a.a. 2–543 (end)] (Homo sapiens, UniProt P07947) (assay: ADP-Glo kinase assay, inhibition rates of Yes phosphorylation activity (first and second screening)). Conditions: first screening; mean of n = 4 wells; 10 μmol L−1 compound.
T1 construct: human recombinant Yes [a.a; 2–543 (end)]; purchased BPS Bioscience 40488
T1 sequence (P07947 2-543): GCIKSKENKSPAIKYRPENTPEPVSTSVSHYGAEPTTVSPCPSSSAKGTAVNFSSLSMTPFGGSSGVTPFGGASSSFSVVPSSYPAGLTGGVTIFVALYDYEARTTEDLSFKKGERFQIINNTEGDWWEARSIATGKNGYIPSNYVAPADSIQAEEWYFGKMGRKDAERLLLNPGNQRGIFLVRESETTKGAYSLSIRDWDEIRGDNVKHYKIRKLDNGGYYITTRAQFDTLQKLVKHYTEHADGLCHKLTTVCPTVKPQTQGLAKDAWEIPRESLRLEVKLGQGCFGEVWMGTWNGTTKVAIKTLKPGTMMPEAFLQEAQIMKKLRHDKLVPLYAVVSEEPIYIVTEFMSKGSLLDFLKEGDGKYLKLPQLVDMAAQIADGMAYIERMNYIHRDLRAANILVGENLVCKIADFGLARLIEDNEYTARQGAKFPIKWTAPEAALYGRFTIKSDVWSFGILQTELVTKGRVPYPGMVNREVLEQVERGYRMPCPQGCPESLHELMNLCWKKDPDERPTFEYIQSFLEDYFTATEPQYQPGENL
Assay type: biochemical
Method: All inhibitory assays of the phosphorylation activity of Yes were performed in accordance with the Promega Technical Manual for the ADP-Glo™ Kinase Assay (Fitchburg, WI, USA. Catalog number: V9102). The human recombinant Yes [a.a. 2–543 (end)] was purchased from BPS Bioscience (catalog number: 40488). The details of the assay protocol and reagent information are given elsewhere.
The screening was conducted in three steps consisting of the first screening, the second screening, and the IC50 determination, as can be illustrated in Fig. 1b. First, we determined the inhibition rates of the 1,991 compounds. Each compound was placed in 4 wells of a 384-well plate. In total, 80 compounds were assayed on one plate and the other wells were used for positive and negative controls. The compounds were randomly placed on plates so that compounds proposed by one group were not placed on a plate together. A mean of four inhibition rates for each compound was compared to criteria for the first screening. […] Second, the inhibition rates of the screened compounds were determined on one plate using the same procedure of the first screening, where compounds were dissolved from fresh powder. […] Screened compounds were then evaluated for their IC50 values.

In order of rising “First screening IR (inhibition rate)” value:
1. COc1cc(/C=C(\C#N)C(=O)NC2CCCCC2)ccc1OCC(=O)Nc1ccc(Br)cc1 [Compound Z44319326]  -16%
2. CCOC(=O)c1ccc(-n2c(O)c(C=NCc3ccccn3)c3ccccc3c2=O)cc1 [Compound Z31275874]  -12%
3. CCOc1ccc(-n2c(O)c(C=NCCCN3CCOCC3)c3ccccc3c2=O)cc1 [Compound Z31276645]  -6%
4. O=C(Nc1ccc(N2CCCCC2)c(S(=O)(=O)Nc2ccc(Cl)cc2)c1)c1ccc(S(=O)(=O)NCc2ccco2)cc1 [Compound Z32729001]  -5%
5. Cc1sc2nc(-c3cccnc3)nc(NC3CC3)c2c1C [Compound Z31232965]  -3%
6. O=C(Cc1cccc(F)c1)NNC(=O)Cn1c(COc2ccc(Cl)cc2)nc2ccccc21 [Compound Z31930719]  -2%
7. COc1ccc2cc(C3(C)NC(=O)N(CN4CCN(C/C=C/c5ccccc5)CC4)C3=O)ccc2c1 (stereo not shown) [Compound Z44124119]  1%
8. Cc1noc(C)c1COc1ccc(C(=O)NCCCn2ccc3ccccc32)cc1 [Compound Z32811942]  3%
9. CC1CCc2c(sc3nc(-c4cccnc4)nc(N4CCCCCCC4)c23)C1 (stereo not shown) [Compound Z31262492]  4%
10. O=C(CCc1c[nH]c2ccccc12)Nc1ccc(F)c([N+](=O)[O-])c1 [Compound Z32407809]  4%
11. Cc1nc2ccc(NC(=O)CNC(=O)c3ccccc3F)cc2s1 [Compound Z33270206]  4%
12. COc1cc(/C=C2/C(=O)Nc3ccc(Cl)cc32)cc(Cl)c1OC(F)F [Compound Z44304760]  4%
13. CC(Nc1ccc2c(c1)OCCO2)C(=O)Nc1ccc(F)c(F)c1F (stereo not shown) [Compound Z44489053]  4%
14. Cc1ccccc1Nc1nc(N)nc(CN(C)Cc2ccc(C(C)(C)C)cc2)n1 [Compound Z44561353]  5%
15. CCCCOc1ccc(/C=C2/C(=O)Nc3ccc(Cl)cc32)cc1 [Compound Z44304381]  6%
16. CCN(CC)S(=O)(=O)c1ccc(NC(=O)CNC(=O)C23CC4CC(CC(C4)C2)C3)cc1 [Compound Z31827545]  8%
17. CC(C)(CNC(=O)c1cccc(N2CC(O)=C(c3nc4ccccc4s3)C2=N)c1)N1CCOCC1 [Compound Z32220177]  8%
18. CCCOc1cc(/C=C2/C(=O)Nc3ccc(Cl)cc32)ccc1OC [Compound Z44304730]  9%
19. COc1ccc(OC)c(-n2c(-c3ccc(C)cc3)nn(CN3CCN(c4ccc(O)cc4)CC3)c2=S)c1 [Compound Z44104256]  10%
20. Cc1cc(F)ccc1S(=O)(=O)Nc1ccc(C(=O)Nc2cccc(CO)c2)cc1 [Compound Z32804094]  11%
21. Cc1nc(/C=C2/C(=O)Nc3ccc(Cl)cc32)cs1 [Compound Z44304809]  13%
22. CC1CC(C)(C)CC2(C1)NC(=O)N(CN1CCN(c3ccc(C(F)(F)F)cn3)CC1)C2=O (stereo not shown) [Compound Z44255985]  18%
23. CCN(CCO)c1nc(-c2ccccn2)nc2scc(-c3ccccc3)c12 [Compound Z31238841]  19%
24. Cc1cc(C(=O)CCC(=O)NCCc2c[nH]c3ccccc23)c(C)s1 [Compound Z32439393]  21%
25. CCOc1ccc(O)c(/C=C2\C(=O)Nc3ccc(Cl)cc32)c1 [Compound Z44304769]  23%
26. O=C1Nc2ccccc2/C1=C\c1ccc(O)cc1 [Compound Z44305789]  25%
27. O=C(CCC(=O)N1CCC(c2ccccc2)=N1)NCc1cccc(Cl)c1 [Compound Z32361141]  30%
28. COc1ccc(OC)c(-n2c(-c3ccc(C)cc3)nn(CN3CCN(c4cccc(Cl)c4)CC3)c2=S)c1 [Compound Z44116384]  31%
